Results as given in PubChem BioAssay AID1919000 (Molecular Pharmacology Branch, DTP, NCI, 2023).

Tested on: 653999-131-R-J2-PDC complex spheroids, growth % test/control
Experiment: Anticancer human tumor 653999-131-R-J2-PDC patient-derived lung adenocarcinoma cell line growth inhibition [AhR]
Conditions: for IC50: curve of first compound; for viability, T/C: stronger effect = lower value
In short: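 Spheroids combined tumor cells with HUVEC endothelial cells and human MSCs as stroma. AhR antagonists were paired with standard or investigational drugs, each dosed in half-log steps down from near clinical Cmax, or from 10 microM where Cmax was unknown.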

[1] = second compound 0.1 µM, first compound 0.00949 µM
[2] = second compound 0.1 µM, first compound 0.03 µM
[3] = second compound 0.1 µM, first compound 0.0949 µM
[4] = second compound 0.1 µM, first compound 0.3 µM
[5] = second compound 0.316 µM, first compound 0.00949 µM
[6] = second compound 0.316 µM, first compound 0.03 µM
[7] = second compound 0.316 µM, first compound 0.0949 µM
[8] = second compound 0.316 µM, first compound 0.3 µM
[9] = second compound 1 µM, first compound 0.00949 µM
[10] = second compound 1 µM, first compound 0.03 µM
[11] = second compound 1 µM, first compound 0.0949 µM
[12] = second compound 1 µM, first compound 0.3 µM
[13] = second compound 3.16 µM, first compound 0.00949 µM
[14] = second compound 3.16 µM, first compound 0.03 µM
[15] = second compound 3.16 µM, first compound 0.0949 µM
[16] = second compound 3.16 µM, first compound 0.3 µM
[17] = second compound 10 µM, first compound 0.00949 µM
[18] = second compound 10 µM, first compound 0.03 µM
[19] = second compound 10 µM, first compound 0.0949 µM
[20] = second compound 10 µM, first compound 0.3 µM
[21] = second compound 0.1 µM, first compound 0.000949 µM
[22] = second compound 0.1 µM, first compound 0.003 µM
[23] = second compound 0.316 µM, first compound 0.000949 µM
[24] = second compound 0.316 µM, first compound 0.003 µM
[25] = second compound 1 µM, first compound 0.000949 µM
[26] = second compound 1 µM, first compound 0.003 µM
[27] = second compound 3.16 µM, first compound 0.000949 µM
[28] = second compound 3.16 µM, first compound 0.003 µM
[29] = second compound 10 µM, first compound 0.000949 µM
[30] = second compound 10 µM, first compound 0.003 µM
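Further: spheroids exposed to agents for seven days.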
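Wherever viability, T/C is given: 100% = DMSO vehicle control viability.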

In the case of `O=C(C=Cn1cnc(-c2cc(C(F)(F)F)cc(C(F)(F)F)c2)n1)NNc1cnccn1` + Cc1cncc(-c2nc(NCCc3c[nH]c4ccccc34)c3ncn(C(C)C)c3n2)c1, the IC50 (second compound 0.1 µM) is reported as 233 nM, the IC50 (second compound 0.316 µM) is reported as 293 nM and the IC50 (second compound 1 µM) is reported as 514 nM. For the same compound, the IC50 (second compound 3.16 µM) was 376 nM, the IC50 (second compound 10 µM) was 48.5 nM and the viability, T/C [1] was 91.2%. For the same compound, the viability, T/C [2] was 65.8%, the viability, T/C [3] was 62.2% and the viability, T/C [4] was 45.2%. It also gave a viability, T/C (second compound 0.1 µM, first compound 0.949 µM) of 43.8%, a viability, T/C (second compound 0.1 µM, first compound 3 µM) of 38.3% and a viability, T/C [5] of 85%. For the same compound, the viability, T/C [6] was 74%, the viability, T/C [7] was 64.2% and the viability, T/C [8] was 50.3%. For the same compound, the viability, T/C (second compound 0.316 µM, first compound 0.949 µM) was 39.3%, the viability, T/C (second compound 0.316 µM, first compound 3 µM) was 43.1% and the viability, T/C [9] was 95.9%. The viability, T/C [10] was 77.8%, the viability, T/C [11] was 66.4% and the viability, T/C [12] was 50.1%. For the same compound, the viability, T/C (second compound 1 µM, first compound 0.949 µM) was 48.4%, the viability, T/C (second compound 1 µM, first compound 3 µM) was 42.1% and the viability, T/C [13] was 95.4%. For the same compound, the viability, T/C [14] was 86.7%, the viability, T/C [15] was 74.9% and the viability, T/C [16] was 51.5%. The viability, T/C (second compound 3.16 µM, first compound 0.949 µM) was 40.9%, the viability, T/C (second compound 3.16 µM, first compound 3 µM) was 41% and the viability, T/C [17] was 59.2%. For the same compound, the viability, T/C [18] was 49.8%, the viability, T/C [19] was 52.2% and the viability, T/C [20] was 40%. The viability, T/C (second compound 10 µM, first compound 0.949 µM) was 34.9% and the viability, T/C (second compound 10 µM, first compound 3 µM) was 37.6%.
`CCc1c2c(nc3ccc(O)cc13)-c1cc3c(c(=O)n1C2)COC(=O)[C@]3(O)CC` + CC(CO)NC(=O)c1cc(-c2ccc(Cl)cc2)nn(-c2cnn(C)c2)c1=O was tested, and the IC50 (second compound 0.1 µM) was 7.43 nM, the IC50 (second compound 0.316 µM) was 5.82 nM and the IC50 (second compound 1 µM) was 6.93 nM. It also gave an IC50 (second compound 3.16 µM) of 5.13 nM, an IC50 (second compound 10 µM) of 4.97 nM and a viability, T/C [21] of 68%. The viability, T/C [22] was 59%, the viability, T/C [1] was 48.4% and the viability, T/C [2] was 32%. For the same compound, the viability, T/C [3] was 21.5%, the viability, T/C [4] was 12.7% and the viability, T/C [23] was 64.1%. It also gave a viability, T/C [24] of 58.8%, a viability, T/C [5] of 42.3% and a viability, T/C [6] of 34%. The viability, T/C [7] was 19.4%, the viability, T/C [8] was 11.4% and the viability, T/C [25] was 67%. The viability, T/C [26] was 60%, the viability, T/C [9] was 45.4% and the viability, T/C [10] was 33.7%. For the same compound, the viability, T/C [11] was 21.2%, the viability, T/C [12] was 13.8% and the viability, T/C [27] was 50.2%. For the same compound, the viability, T/C [28] was 50.8%, the viability, T/C [13] was 49.9% and the viability, T/C [14] was 29.1%. It also gave a viability, T/C [15] of 22.1%, a viability, T/C [16] of 15.8% and a viability, T/C [29] of 63.2%. The viability, T/C [30] was 55.8%, the viability, T/C [17] was 42.9% and the viability, T/C [18] was 30%. The viability, T/C [19] was 21.8% and the viability, T/C [20] was 16.1%.
For `CCc1c2c(nc3ccc(O)cc13)-c1cc3c(c(=O)n1C2)COC(=O)[C@]3(O)CC` + Cc1ccccc1N=Nc1ccc(NC(=O)c2ccnn2C)c(C)c1, the IC50 (second compound 0.1 µM) was 11.5 nM, the IC50 (second compound 0.316 µM) was 10.9 nM and the IC50 (second compound 1 µM) was 9.66 nM. For the same compound, the IC50 (second compound 3.16 µM) was 9.18 nM, the IC50 (second compound 10 µM) was 10.2 nM and the viability, T/C [21] was 94.8%. It also gave a viability, T/C [22] of 76.6%, a viability, T/C [1] of 51% and a viability, T/C [2] of 34.7%. It also gave a viability, T/C [3] of 29.7%, a viability, T/C [4] of 17.4% and a viability, T/C [23] of 88%. The viability, T/C [24] was 80.6%, the viability, T/C [5] was 49.7% and the viability, T/C [6] was 32.9%. It also gave a viability, T/C [7] of 30.1%, a viability, T/C [8] of 17.7% and a viability, T/C [25] of 85.6%. The viability, T/C [26] was 72.6%, the viability, T/C [9] was 46% and the viability, T/C [10] was 37.3%. The viability, T/C [11] was 25.4%, the viability, T/C [12] was 19.2% and the viability, T/C [27] was 81.3%. For the same compound, the viability, T/C [28] was 65%, the viability, T/C [13] was 51.3% and the viability, T/C [14] was 32.5%. It also gave a viability, T/C [15] of 25.2%, a viability, T/C [16] of 14.7% and a viability, T/C [29] of 73.6%. For the same compound, the viability, T/C [30] was 62.2%, the viability, T/C [17] was 49.7% and the viability, T/C [18] was 41%. For the same compound, the viability, T/C [19] was 27.5% and the viability, T/C [20] was 18.4%.
For `CC1(C)CCC(CN2CCN(c3ccc(C(=O)NS(=O)(=O)c4ccc(NCC5CCOCC5)c([N+](=O)[O-])c4)c(Oc4cnc5[nH]ccc5c4)c3)CC2)=C(c2ccc(Cl)cc2)C1` + Cc1cncc(-c2nc(NCCc3c[nH]c4ccccc34)c3ncn(C(C)C)c3n2)c1, the IC50 (second compound 0.1 µM) was > 10000 nM, the IC50 (second compound 0.316 µM) was > 10000 nM and the IC50 (second compound 1 µM) was > 10000 nM. The IC50 (second compound 3.16 µM) was > 10000 nM, the IC50 (second compound 10 µM) was > 10000 nM and the viability, T/C (second compound 0.1 µM, first compound 0.0316 µM) was 92.8%. For the same compound, the viability, T/C (second compound 0.1 µM, first compound 0.1 µM) was 93.8%, the viability, T/C (second compound 0.1 µM, first compound 0.316 µM) was 89% and the viability, T/C (second compound 0.1 µM, first compound 1 µM) was 101%. For the same compound, the viability, T/C (second compound 0.1 µM, first compound 3.16 µM) was 94.2%, the viability, T/C (second compound 0.1 µM, first compound 10 µM) was 85.8% and the viability, T/C (second compound 0.316 µM, first compound 0.0316 µM) was 97.8%. The viability, T/C (second compound 0.316 µM, first compound 0.1 µM) was 90.7%, the viability, T/C (second compound 0.316 µM, first compound 0.316 µM) was 94.8% and the viability, T/C (second compound 0.316 µM, first compound 1 µM) was 97.8%. For the same compound, the viability, T/C (second compound 0.316 µM, first compound 3.16 µM) was 116%, the viability, T/C (second compound 0.316 µM, first compound 10 µM) was 83% and the viability, T/C (second compound 1 µM, first compound 0.0316 µM) was 103%. For the same compound, the viability, T/C (second compound 1 µM, first compound 0.1 µM) was 108%, the viability, T/C (second compound 1 µM, first compound 0.316 µM) was 109% and the viability, T/C (second compound 1 µM, first compound 1 µM) was 102%. The viability, T/C (second compound 1 µM, first compound 3.16 µM) was 116%, the viability, T/C (second compound 1 µM, first compound 10 µM) was 105% and the viability, T/C (second compound 3.16 µM, first compound 0.0316 µM) was 105%. It also gave a viability, T/C (second compound 3.16 µM, first compound 0.1 µM) of 105%, a viability, T/C (second compound 3.16 µM, first compound 0.316 µM) of 109% and a viability, T/C (second compound 3.16 µM, first compound 1 µM) of 115%. It also gave a viability, T/C (second compound 3.16 µM, first compound 3.16 µM) of 104%, a viability, T/C (second compound 3.16 µM, first compound 10 µM) of 91.8% and a viability, T/C (second compound 10 µM, first compound 0.0316 µM) of 59.4%. The viability, T/C (second compound 10 µM, first compound 0.1 µM) was 61.9%, the viability, T/C (second compound 10 µM, first compound 0.316 µM) was 59.5% and the viability, T/C (second compound 10 µM, first compound 1 µM) was 71.3%. The viability, T/C (second compound 10 µM, first compound 3.16 µM) was 74.1% and the viability, T/C (second compound 10 µM, first compound 10 µM) was 62.5%.
